Measured values published in patent publication EP2510787A1, “Propenoates as fungicides” (Bayer CropScience AG, priority 2011, dated 2012).

Tested on: Plasmopara viticola
Test: Plasmopara test (grapevines) / preventive
Type: in vivo
Conditions: preventive spray, 100 ppm of active ingredient, evaluated 6 days after the inoculation, 100 % = no disease
Experimental: Plasmopara test (grapevines) / preventive
To produce a suitable preparation of active compound, 1 part by weight of active compound is mixed with the stated amounts of solvent and emulsifier, and the concentrate is diluted with water to the desired concentration.
To test for preventive activity, young plants are sprayed with the preparation of active compound at the stated rate of application. After the spray coating has dried on, the plants are inoculated with an aqueous spore suspension of Plasmopara viticola and then remain for 1 day in an incubation cabinet at approximately 20°C and a relative atmospheric humidity of 100 %. The plant is subsequently placed for 4 days in a greenhouse at approximately 21°C and a relative atmospheric humidity of approximately 90 %. The plants are then misted and placed for 1 day in an incubation cabinet.
The test is evaluated 6 days after the inoculation. 0 % means an efficacy which corresponds to that of the untreated control, while an efficacy of 100 % means that no disease is observed.

| Compound | Efficacy in % [%] |
| --- | --- |
| CCOC(=O)C(C#N)=C(SC(C)C(C)C)c1cn(C)nc1C(F)F (centres unmarked) [Example 19] | 92 |
| CCOC(=O)C(C#N)=C(SC(C)C(C)C)c1cccnc1Cl (centres unmarked) [Example 1] | 88 |

Tested on: not listed separately
Test: logP measurement by HPLC on reversed phase columns (EEC directive 79/831 Annex V.A8)
Type: physicochemical
Conditions: pH 2.7, pH 2,7 with 0,1 % formic acid in water and acetonitrile, linear gradient 10 % to 95 % acetonitrile

| Compound | chromatographic logP |
| --- | --- |
| CCCC(C)SC(=C(C#N)C(=O)OCC)c1cccnc1Cl (centres unmarked) [Example 25] | 3.78 |
| CCOC(=O)C(C#N)=C(OC(C)C(C)C)c1ccnn1C(F)F (centres unmarked) [Example 15] | 3.25 |
| CCOC(=O)C(C#N)=C(SC(C)C(C)C)c1ccnn1C(F)F (centres unmarked) [Example 6] | 3.59 |
| CCOC(=O)C(C#N)=C(OC(C)C(C)C)c1cn(C)nc1C(F)F (centres unmarked) [Example 12] | 2.98 |
| CCOC(=O)C(C#N)=C(SC(C)c1ccccn1)c1cccnc1Cl (centres unmarked) [Example 17] | 2.51 |
| CCOC(=O)C(C#N)=C(SC(C)C(C)C)c1cn(C)nc1C(F)F (centres unmarked) [Example 19] | 3.3 |
| CCOC(=O)C(C#N)=C(SC(C)CC)c1cn(C)nc1C(F)F (centres unmarked) [Example 3] | 3.11 |
| CCOC(=O)C(C#N)=C(OC(C)C(C)C)c1scnc1Cl (centres unmarked) [Example 16] | 3.37 |
| CCOC(=O)C(C#N)=C(SC(C)C(C)C)c1scnc1Cl (centres unmarked) [Example 22] | 3.79 |
| CCOC(=O)C(C#N)=C(SC(C)C(C)C)c1cccnc1Cl (centres unmarked) [Example 1] | 3.8 |

Second part, the compound after the results:

| chromatographic logP | Compound |
| --- | --- |
| 2.4 | CCOC(=O)C(C#N)=C(O[C@@H](C)C(=O)OC)c1cccnc1Cl [Example 20] |
| 3.33 | CCOC(=O)C(C#N)=C(OC(C)C=C(Cl)Cl)c1cccnc1Cl (centres unmarked) [Example 26] |
| 2.9 | CCOC(=O)C(C#N)=C(OC(C)c1ccc(Cl)nc1)c1cccnc1Cl (centres unmarked) [Example 11] |
| 3.74 | CCOC(=O)C(C#N)=C(OC1CCCCC1C)c1cccnc1Cl (centres unmarked) [Example 21] |
| 2.39 | CCOC(=O)C(C#N)=C(OC(C)c1ccccn1)c1cccnc1Cl (centres unmarked) [Example 23] |
| 3.96 | CCOC(=O)C(C#N)=C(OC(C)C(CC)CC)c1cccnc1Cl (centres unmarked) [Example 2] |
| 2.2 | CCOC(=O)C(C#N)=C(OC(C)C1=NOCCO1)c1cccnc1Cl (centres unmarked) [Example 9] |
| 2.61 | C#CCC(C)OC(=C(C#N)C(=O)OCC)c1cccnc1Cl (centres unmarked) [Example 10] |
| 3.57 | CCOC(=O)C(C#N)=C(OC(C)C(C)(C)C)c1cccnc1Cl (centres unmarked) [Example 5] |
| 2.71 | CCOC(=O)C(C#N)=C(O[C@H](C)C(=O)OCC)c1cccnc1Cl [Example 13] |
| 3.27 | CCOC(=O)C(C#N)=C(OC(C)C(C)C)c1cccnc1Cl (centres unmarked) [Example 7] |
| 2.44 | CCOC(=O)C(C#N)=C(OC(C)COC)c1cccnc1Cl (centres unmarked) [Example 8] |
| 3.92 | CCOC(=O)C(C#N)=C(OC(C)CC(C)(C)C)c1cccnc1Cl (centres unmarked) [Example 4] |
| 2.9 | CCOC(=O)C(C#N)=C(OC1(C(=O)OCC)CC1)c1cccnc1Cl [Example 24] |
